In patent US20250353864A1, “INDAZOLE CONTAINING MACROCYCLES AND THEIR USE” (BLOSSOMHILL THERAPEUTICS, INC., priority 2022, published 2025):
pIC50: −log10 of the molar value.

What was measured:
Assay type in all cases: biochemical
[1] = target: EGFR Δ746-750/C797S mutant (Homo sapiens (Human), UniProt P00533, C797S/DEL746-750); assay: HotSpot radiometric kinase assay, EGFR Δ746-750/C797S mutant; settings: 10 μM ATP
Summary of the method: (§1)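 Radiometric filter-binding assay with EGFR mutant kinase/substrate pairs in 20 mM Hepes pH 7.5 with Mg, EGTA, Brij35, BSA, Na3VO4, DTT, 1% DMSO. Compound preincubated ~20 min, then ATP/^33P-ATP added at 10 μM final. Reaction 120 min at room temperature, spotted on P81 paper; IC50 from curve fits.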

EGFR (D770_N771insNPG) = EGFR (D770_N771insNPG) (Homo sapiens (Human), UniProt P00533, INS770NPG); assay: HotSpot radiometric kinase assay, EGFR (D770_N771insNPG); settings: 10 μM ATP, read-out: EGFR (Δ770_N771insNPG) IC50
Chain of EGFR (D770_N771insNPG) (P00533 other isoform, or with tags, fused parts or gaps del 1-668/ins NPG behind 770 limits assumed): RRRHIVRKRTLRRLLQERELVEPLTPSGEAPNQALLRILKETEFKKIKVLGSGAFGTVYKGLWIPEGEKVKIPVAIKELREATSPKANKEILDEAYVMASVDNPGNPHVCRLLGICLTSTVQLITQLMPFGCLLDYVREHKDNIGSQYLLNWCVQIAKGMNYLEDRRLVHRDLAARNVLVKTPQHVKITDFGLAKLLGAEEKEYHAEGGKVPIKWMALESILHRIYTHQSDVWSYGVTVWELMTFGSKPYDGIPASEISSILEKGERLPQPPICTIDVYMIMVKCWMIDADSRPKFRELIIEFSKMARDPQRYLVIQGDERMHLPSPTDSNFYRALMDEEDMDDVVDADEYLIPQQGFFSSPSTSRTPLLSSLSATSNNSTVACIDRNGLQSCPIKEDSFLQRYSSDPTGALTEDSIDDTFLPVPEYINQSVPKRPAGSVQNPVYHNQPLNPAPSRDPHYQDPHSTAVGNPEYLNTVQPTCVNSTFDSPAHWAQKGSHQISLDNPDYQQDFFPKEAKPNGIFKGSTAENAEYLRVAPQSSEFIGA
Summary of the method: as §1

EGFR WT = EGFR WT (Homo sapiens (Human), UniProt P00533); assay: HotSpot radiometric kinase assay (Reaction Biology), EGFR WT; settings: 10 μM ATP
Summary of the method: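 Radiometric filter-binding read-out: incorporated 33P was retained on P81 ion-exchange paper after washing away unbound phosphate. Reactions ran 120 min at room temperature with 10 μM final ATP, following ~20 min compound preincubation in Hepes pH 7.5 buffer containing 1% DMSO. IC50 from fitted curves.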

[2] = target: EGFR L858R/T790M/C797S mutant (Homo sapiens (Human), UniProt P00533, C797S/L858R/T790M); assay: HotSpot radiometric kinase assay, EGFR L858R/T790M/C797S mutant; settings: 10 μM ATP
Summary of the method: as §1

EGFR Δ746-750 mutant = EGFR Δ746-750 mutant (Homo sapiens (Human), UniProt P00533, DEL746-750); assay: HotSpot radiometric kinase assay, EGFR Δ746-750 mutant; settings: 10 μM ATP
Chain of EGFR Δ746-750 mutant (P00533 other isoform, or with tags, fused parts or gaps del 1-668/del 746-750 limits assumed): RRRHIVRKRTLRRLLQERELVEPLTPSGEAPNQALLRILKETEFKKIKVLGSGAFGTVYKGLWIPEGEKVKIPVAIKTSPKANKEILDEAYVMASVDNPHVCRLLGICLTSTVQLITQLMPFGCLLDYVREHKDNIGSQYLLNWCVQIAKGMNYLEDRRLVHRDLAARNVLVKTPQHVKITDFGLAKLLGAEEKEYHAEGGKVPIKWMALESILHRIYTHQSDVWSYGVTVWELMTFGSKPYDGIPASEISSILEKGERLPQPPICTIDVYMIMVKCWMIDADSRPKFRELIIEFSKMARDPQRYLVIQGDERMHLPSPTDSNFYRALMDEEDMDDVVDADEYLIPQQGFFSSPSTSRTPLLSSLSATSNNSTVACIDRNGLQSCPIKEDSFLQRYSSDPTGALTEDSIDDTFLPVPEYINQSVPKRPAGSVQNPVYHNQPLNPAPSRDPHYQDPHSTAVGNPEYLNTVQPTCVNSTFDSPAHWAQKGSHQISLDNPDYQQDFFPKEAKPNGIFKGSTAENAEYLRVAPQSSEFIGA
Summary of the method: as §1

EGFR L858R mutant = EGFR L858R mutant (Homo sapiens (Human), UniProt P00533, L858R); assay: HotSpot radiometric kinase assay, EGFR L858R mutant; settings: 10 μM ATP
Chain of EGFR L858R mutant (P00533 25-1210 L858R): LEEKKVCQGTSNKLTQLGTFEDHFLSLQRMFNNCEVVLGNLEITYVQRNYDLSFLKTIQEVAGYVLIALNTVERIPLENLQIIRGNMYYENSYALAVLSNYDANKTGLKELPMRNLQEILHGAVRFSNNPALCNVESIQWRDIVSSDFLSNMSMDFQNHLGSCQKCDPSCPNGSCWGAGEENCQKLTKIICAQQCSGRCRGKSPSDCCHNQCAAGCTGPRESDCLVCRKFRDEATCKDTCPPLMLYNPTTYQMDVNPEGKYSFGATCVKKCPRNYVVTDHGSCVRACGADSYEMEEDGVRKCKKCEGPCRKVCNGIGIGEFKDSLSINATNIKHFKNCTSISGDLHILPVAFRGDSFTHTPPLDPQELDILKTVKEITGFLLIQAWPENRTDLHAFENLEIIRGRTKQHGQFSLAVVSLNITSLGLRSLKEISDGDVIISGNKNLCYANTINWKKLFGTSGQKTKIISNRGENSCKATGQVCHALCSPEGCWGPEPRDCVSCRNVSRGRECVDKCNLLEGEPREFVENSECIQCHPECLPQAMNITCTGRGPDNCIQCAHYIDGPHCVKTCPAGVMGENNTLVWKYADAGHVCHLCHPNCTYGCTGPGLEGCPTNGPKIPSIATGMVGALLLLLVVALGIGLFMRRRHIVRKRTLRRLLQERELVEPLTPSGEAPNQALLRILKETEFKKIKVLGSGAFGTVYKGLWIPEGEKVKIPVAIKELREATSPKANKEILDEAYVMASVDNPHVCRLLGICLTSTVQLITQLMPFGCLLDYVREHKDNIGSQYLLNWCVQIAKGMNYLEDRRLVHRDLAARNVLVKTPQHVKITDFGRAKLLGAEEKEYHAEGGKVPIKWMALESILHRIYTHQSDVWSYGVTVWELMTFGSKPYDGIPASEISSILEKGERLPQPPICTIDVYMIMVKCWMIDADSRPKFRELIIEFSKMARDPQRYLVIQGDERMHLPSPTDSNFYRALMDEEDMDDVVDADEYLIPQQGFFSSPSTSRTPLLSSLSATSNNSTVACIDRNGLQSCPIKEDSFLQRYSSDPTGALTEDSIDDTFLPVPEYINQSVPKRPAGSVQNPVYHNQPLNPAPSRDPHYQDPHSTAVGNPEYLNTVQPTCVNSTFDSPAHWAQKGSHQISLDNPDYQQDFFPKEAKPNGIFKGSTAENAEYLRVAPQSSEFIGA
Summary of the method: as §1

EGFR L858R/T790M mutant = EGFR L858R/T790M mutant (Homo sapiens (Human), UniProt P00533, L858R/T790M); assay: HotSpot radiometric kinase assay, EGFR L858R/T790M mutant; settings: 10 μM ATP
Chain of EGFR L858R/T790M mutant (P00533 25-1210 T790M/L858R): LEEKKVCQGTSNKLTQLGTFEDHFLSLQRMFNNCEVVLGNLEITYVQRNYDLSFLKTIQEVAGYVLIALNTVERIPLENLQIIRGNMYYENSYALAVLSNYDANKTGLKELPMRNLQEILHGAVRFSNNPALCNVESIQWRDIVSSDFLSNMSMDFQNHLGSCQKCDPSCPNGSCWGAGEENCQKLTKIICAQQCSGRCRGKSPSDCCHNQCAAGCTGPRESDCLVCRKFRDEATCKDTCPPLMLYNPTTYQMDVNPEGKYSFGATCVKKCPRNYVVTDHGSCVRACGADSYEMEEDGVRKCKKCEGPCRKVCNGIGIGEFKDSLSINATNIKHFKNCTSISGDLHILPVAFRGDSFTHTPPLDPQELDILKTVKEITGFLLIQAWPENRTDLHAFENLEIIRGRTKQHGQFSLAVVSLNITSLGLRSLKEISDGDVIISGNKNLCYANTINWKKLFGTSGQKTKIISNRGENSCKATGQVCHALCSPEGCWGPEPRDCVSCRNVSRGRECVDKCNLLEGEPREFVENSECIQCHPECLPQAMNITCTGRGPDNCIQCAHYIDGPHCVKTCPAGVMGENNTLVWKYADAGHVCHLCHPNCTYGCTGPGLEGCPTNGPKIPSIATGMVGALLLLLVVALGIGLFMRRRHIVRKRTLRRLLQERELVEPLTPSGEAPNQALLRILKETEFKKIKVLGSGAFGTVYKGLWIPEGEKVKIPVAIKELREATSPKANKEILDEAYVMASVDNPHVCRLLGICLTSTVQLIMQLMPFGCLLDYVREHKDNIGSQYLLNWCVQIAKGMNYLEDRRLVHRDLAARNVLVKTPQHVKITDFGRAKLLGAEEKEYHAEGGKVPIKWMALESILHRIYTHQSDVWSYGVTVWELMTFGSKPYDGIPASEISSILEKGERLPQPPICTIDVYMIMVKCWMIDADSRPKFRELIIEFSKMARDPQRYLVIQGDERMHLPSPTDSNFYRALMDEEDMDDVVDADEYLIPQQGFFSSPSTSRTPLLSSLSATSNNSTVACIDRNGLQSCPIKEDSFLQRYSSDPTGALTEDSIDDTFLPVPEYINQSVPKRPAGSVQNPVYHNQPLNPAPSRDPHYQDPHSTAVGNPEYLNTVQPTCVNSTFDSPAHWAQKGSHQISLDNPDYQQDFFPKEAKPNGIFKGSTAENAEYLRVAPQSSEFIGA
Summary of the method: as §1

Chain of EGFR Δ746-750/C797S mutant (P00533 other isoform, or with tags, fused parts or gaps C797S/del 1-668/del 746-750 limits assumed): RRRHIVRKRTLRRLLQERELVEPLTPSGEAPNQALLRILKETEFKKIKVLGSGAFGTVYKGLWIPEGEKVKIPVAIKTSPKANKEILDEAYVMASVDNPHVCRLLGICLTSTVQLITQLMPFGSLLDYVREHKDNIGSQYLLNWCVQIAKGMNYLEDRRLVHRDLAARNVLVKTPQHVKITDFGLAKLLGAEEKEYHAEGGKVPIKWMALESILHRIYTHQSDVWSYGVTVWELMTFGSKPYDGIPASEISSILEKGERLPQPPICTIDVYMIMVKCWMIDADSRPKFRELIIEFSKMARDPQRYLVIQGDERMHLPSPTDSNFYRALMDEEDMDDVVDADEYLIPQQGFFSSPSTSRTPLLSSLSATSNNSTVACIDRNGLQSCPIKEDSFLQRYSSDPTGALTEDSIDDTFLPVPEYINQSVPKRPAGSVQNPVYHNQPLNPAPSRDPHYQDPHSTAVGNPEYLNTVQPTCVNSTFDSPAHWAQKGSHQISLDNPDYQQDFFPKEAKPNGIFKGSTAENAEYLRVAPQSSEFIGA

Compound | pIC50 [1] | pIC50 (EGFR (D770_N771insNPG)) | pIC50 (EGFR WT) | pIC50 [2] | pIC50 (EGFR Δ746-750 mutant) | pIC50 (EGFR L858R mutant) | pIC50 (EGFR L858R/T790M mutant)
Cc1c2c(nn1CCN1CCN(C)CC1)CN(C)C[C@H](C)Oc1c(cnn1C)-c1ccc3[nH]nc(c3c1)/C=C/2 [Example 90, (10S,17E)-8,10,12,16-tetramethyl-15-[2-(4-methylpiperazin-1-yl)ethyl]-2,10,11,12,13,15-hexahydro-8H-3,5-ethenotripyrazolo[3,4-f:3′,4′-j:4″,3″-n][1,4]oxazacyclopentadecine] | 8.33 | 7.09 | 7.77 | 9.09 | 7.94 | 8.99 | 10.22
Cc1c2c(nn1[C@H]1C[C@@H](N(C)CCN(C)C)C1)OCCCOc1c(cnn1C)-c1ccc3[nH]nc(c3c1)/C=C/2 [Example 102, N^1—{(1s,3s)-3-[(17E)-8,16-dimethyl-2,8,11,12-tetrahydro-10H,15H-3,5-etheno[1,5]dioxacyclopentadecino[10,11-c:15,14-c′:6,7-c′]tripyrazol-15-yl]cyclobutyl}-N^1,N—,N^2-trimethylethane-1,2-diamine] | 7.35 | 7.02 | 7.20 | 7.88 | 7.32 | 7.59 | 8.39
Cc1c2c(nn1CCO)OCCOC(C)c1c(cnn1C)-c1ccc3[nH]nc(c3c1)/C=C/2 (stereo not drawn) [Example 79, 2-[(17E)-8,9,16-trimethyl-8,9,11,12-tetrahydro-3,5-etheno[1,4]dioxacyclopentadecino[11,10-c:15,14-c′:6,7-c″ ]tripyrazol-15(2H)-yl]ethan-1-ol] | 6.55 | 6.02 | 5.72 | 7.17 | 6.22 | 6.28 | 7.24
CCOc1nn(CCO)c2c1/C=C/c1n[nH]c3ccc(cc13)-c1c(C)nn(C)c1OC[C@H](C)N(C1CC1)C2 [Example 205, 2-[(11S,17E)-12-cyclopropyl-16-ethoxy-6,8,11-trimethyl-2,8,10,11,12,13-hexahydro-14H-3,5-ethenotripyrazolo[3,4-f:3′,4′-j:4″,3″- n][1,4]oxazacyclopentadecin-14-yl]ethan-1-ol] | 8.85 | 6.86 | 7.23 | 8.95 | 8.29 | 7.79 | 9.00
C[C@H]1CN(C)Cc2c(c(OC3CCN(S(C)(=O)=O)CC3)nn2CCO)/C=C/c2n[nH]c3ccc(cc23)-c2cnn(C)c2O1 [Example 175, 2-[(10S,17E)-16-{[1-(methanesulfonyl)piperidin-4-yl]oxy}-8,10,12-trimethyl-2,8,10,11,12,13-hexahydro-14H-3,5-ethenotripyrazolo[3,4-f:3′,4′-j:4″,3″- n][1,4]oxazacyclopentadecin-14-yl]ethan-1-ol] | 8.05 | 6.15 | 6.76 | 8.47 | 7.17 | 7.37 | 8.69
CCOc1ccc2c(n1)/C=C/c1n[nH]c3ccc(cc13)-c1cnn(C)c1O[C@@H](C)CN(C)C2 [Ex. 267, (10S,18E)-16-ethoxy-8,10,12-trimethyl-2,8,10,11,12,13-hexahydro-3,5-ethenodipyrazolo[3,4-j:4′,3′-n]pyrido[3,2-f][1,4]oxazacyclopentadecine] | 6.97 | 5.91 | 6.11 | 8.27 | 6.93 | 6.62 | 8.08
Cc1nn([C@H]2CCNC[C@@H]2O)c2c1/C=C/c1n[nH]c3ccc(cc13)-c1cnn(C)c1OCCCO2 (racemic) [Example 80, (rac)-4-[(17E)-8,16-dimethyl-2,8,11,12-tetrahydro-10H,14H-3,5-etheno[1,5]dioxacyclopentadecino[10,11-c:15,14-c′:6,7-c′]tripyrazol-14-yl]piperidin-3-ol] | 7.41 | 7.23 | 7.29 | 7.95 | 7.41 | 7.61 | 8.36
COC(C)(C)c1ccc2c(c1)O[C@@H]1CCN(CCOc3c(cnn3C)-c3ccc4[nH]nc(c4c3)/C=C/2)C1=O [Example 115, (10R,16E)-13-(2-methoxypropan-2-yl)-3-methyl-3,5,6,9,10,19-hexahydro-8H-20,22-etheno-7,10-methanodipyrazolo[3,4-i:4′,3′-m][1,8,5]benzodioxazacyclooctadecin-25-one] | 7.22 | 7.49 | 6.83 | 7.85 | 7.89 | 7.43 | 8.80
Cc1nn(CCO)c2c1/C=C/c1n[nH]c3ccc(cc13)-c1cnn(C)c1CN(C)CCO2 [Example 56, 2-[(17E)-8,10,16-trimethyl-2,8,9,10,11,12-hexahydro-14H-3,5-ethenotripyrazolo[3,4-f:4′,3′-j:4″,3″- n][1,4]oxazacyclopentadecin-14-yl]ethan-1-ol] | 8.07 | 7.30 | 7.37 | 8.95 | 7.82 | 7.65 | 8.91
Cc1nn(C[C@@H](C)O)c2c1/C=C/c1n[nH]c3ccc(cc13)-c1cnn(C)c1O[C@@H](C)CN(C)C2 [Example 127, (2R)-1-[(10S,17E)-8,10,12,16-tetramethyl-2,8,10,11,12,13-hexahydro-14H-3,5-ethenotripyrazolo[3,4-f:3′,4′-j:4″,3″-n][1,4]oxazacyclopentadecin-14-yl]propan-2-ol] | 9.07 | 7.59 | 7.95 | 9.37 | 8.55 | 8.74 | 9.82

The remaining compounds from weak to strong by pIC50 [1], led by results:

pIC50 [1] | pIC50 (EGFR (D770_N771insNPG)) | pIC50 (EGFR WT) | pIC50 [2] | pIC50 (EGFR Δ746-750 mutant) | pIC50 (EGFR L858R mutant) | pIC50 (EGFR L858R/T790M mutant) | Compound
7.03 | 6.71 | 6.62 | 8.02 | 6.55 | 7.13 | 8.28 | Cc1nn(C)c2c1/C=C/c1n[nH]c3ccc(cc13)-c1cnn(C)c1CN(C)C[C@@H](C)O2 (single isomer, unassigned) [Example 96]
7.04 | 6.63 | 6.27 | 7.20 | 6.83 | 6.81 | 7.37 | Cc1nn([C@H]2COC[C@@H]2O)c2c1/C=C/c1n[nH]c3ccc(cc13)-c1cnn(C)c1OCCCO2 (single isomer, unassigned) [Example 76]
7.31 | 6.99 | 6.99 | 7.92 | 7.51 | 7.58 | 8.41 | Cc1nn([C@H]2C[C@@H](NCCN(C)C)C2)c2c1/C=C/c1n[nH]c3ccc(cc13)-c1cnn(C)c1OCCCO2 [Example 108, N^2-{(1s,3s)-3-[(17E)-8,16-dimethyl-2,8,11,12-tetrahydro-10H,14H-3,5-etheno[1,5]dioxacyclopentadecino[10,11-c:15,14-c′:6,7-c″]tripyrazol-14-yl]cyclobutyl}-N^1,N^1-dimethylethane-1,2-diamine]
7.63 | 6.39 | 6.43 | 8.56 | 7.46 | 7.37 | 8.37 | C[C@H]1CN(C)Cc2c(c(O)nn2C)/C=C/c2n[nH]c3ccc(cc23)-c2cnn(C)c2O1 [Example 148, (10S,17E)-8,10,12,14-tetramethyl-2,10,11,12,13,14-hexahydro-8H-3,5-ethenotripyrazolo[3,4-f:3′,4′-j:4″,3″-n][1,4]oxazacyclopentadecin-16-ol]
7.92 | 6.48 | 6.99 | 8.81 | 7.82 | 7.84 | 9.10 | C[C@H]1CN(C)Cc2c(c(OC3CCNCC3)nn2C)/C=C/c2n[nH]c3ccc(cc23)-c2cnn(C)c2O1 [Example 136, (10S,17E)-8,10,12,14-tetramethyl-16-[(piperidin-4-yl)oxy]-2,10,11,12,13,14-hexahydro-8H-3,5-ethenotripyrazolo[3,4-f:3′,4′-j:4″,3″-n][1,4]oxazacyclopentadecine]
